Experiment: DPPH assay of antioxidative (antiradical) activity
Details: measured in EC50 and 1/EC50 values
From the text: For tests of antioxidative activity, the DPPH assay is used. DPPH (2,2-Diphenyl-1-picrylhydrazyl) is a stable radical, which absorbs in its radical form at 515 nm. Upon reduction by an antioxidant (AH), the absorption disappears:
The rate of reaction (1) can be rather different for different antioxidants. In the case of the vitamins C and E, the equilibrium is reached in several minutes, however for other antioxidants it may also take hours. In the test, the ratio of the molar concentrations of the antioxidant and DPPH is varied (this ratio is named “EC”=efficient concentration), and the concentration of DPPH in the equilibrium state is measured for each ratio. Antiradical activity is defined as the amount of antioxidant necessary to decrease the initial DPPH-concentration by 50%, and is characterized by the so-called EC50 value. The smaller the EC50 value, the more efficient is the antioxidant. Thus, the inverse, 1/EC50, can be used to quantify the antiradical power.
Solutions of DPPH and the antioxidants in ethanol are prepared separately and added together for starting the reaction (0.5 cm^3 of a 250 μM antioxidant solution is added to 2.5 cm^3 of a 100 μM DPPH solution). The absorption is measured using a Perkin Elmer Lambda 20 spectrophotometer.

| Structure (SMILES) | antioxidant/radical power compared to state-of-the-art antioxidants (101) and (102) |
| --- | --- |
| COc1c(O)c(O)cc2c1oc1cc(C)oc(=O)c12 [Compound A-1, 7,8-dihydroxy-6-methoxy-3-methyl-1H-pyrano[4,3-b]benzofuran-1-one] | significantly higher antioxidant/radical power |
| Cc1cc2oc3cc(O)c(O)cc3c2c(=O)o1 [Compound A-2, 7,8-dihydroxy-3-methyl-1H-pyrano[4,3-b]benzofuran-1-one] | significantly higher antioxidant/radical power |
| Cl.NCCCCCc1cc2oc3cc(O)c(O)cc3c2c(=O)o1 [Compound A-23] | significantly higher antioxidant/radical power |

— US8383088B2, “Coumestan-like antioxidants and UV absorbants” (BASF SE, priority 2007, dated 2013)
